What was measured:
Format in all cases: in vivo
[1] = tested on: intrinsic pathway of coagulation system; experiment: Activated partial thromboplastin time (aPTT) of plasma from IA-treated mice
Procedure: The 5- to 6-week old male C57BL/6JNar1 mice having body weights around 20 g were purchased from National Laboratory Animal Center, Taipei, Taiwan. Coagulation system in blood is composed of intrinsic and extrinsic pathways. The intrinsic pathway is assayed by activated thromboplastin time (aPTT) and the extrinsic pathway is assayed by prothrombin time (PT). Following intraperitoneal injection of various dose of IA, plasma was obtained at different periods of time and was assayed for aPTT and PT. aPTT and PT were assayed in a Stago ST4 coagulation analyzer (ST art 4, Diagnostica Stago, France). By carbon dioxide anesthesia of mice, blood was obtained by cardiac puncture using 3.2% sodium citrate mixing with blood at a ratio of 1:9. The blood was centrifuged at 2000g/rpm for 10 minutes to get the mouse plasma, which was assayed immediately. aPTT was assayed in 4-fold dilution of aPTT r reagent using kit-provided buffer solution as diluent. In aPTT assay, 0.1 mL of plasma was kept warm for 1 min at 37° C. in a barrette of 4 cuvettes in Stago ST4 coagulation analyzer, then 0.1 mL of 4 fold-diluted aPTT reagent and one steel ball were added and waited for 180 seconds. Finally, 0.1 mL of 25 mM CaCl2 solution was added for aPTT detection. To investigate the anticoagulation effect in the intrinsic pathway of coagulation system in the IA-treated mice, the aPTT was measured at different treatment times. Mouse (n=6) was intraperitoneally injected with 1 mL of 1000 ppm ([…]) IA, blood was drawn 1 hr, 2 hr, 3 hr, and 24 hr after IA injection. Ten mice were injected with vehicle (n=10) and were served as controls. Then, the aPTT of each group was measured. FIG. 2A is a diagram of Table 1-1. To investigate the anticoagulation effect in the intrinsic pathway of coagulation system the IA-treated mice, the aPTT was also measured under different doses of IA. Various doses of IA (1 ppm, 10 ppm, 100 ppm, 1,000 ppm) in 1 mL, were intraperitoneally injected into different groups of mice (n=6), respectively. Plasma was separated 3 hr later. Ten mice were injected with vehicle and were served as controls. The aPTT of each group was measured. FIG. 2B is a diagram of Table 1-2.

[2] = tested on: extrinsic pathway of coagulation system; experiment: Prothrombin time (PT) of plasma from IA-treated mice
Procedure: The 5- to 6-week old male C57BL/6JNar1 mice having body weights around 20 g were purchased from National Laboratory Animal Center, Taipei, Taiwan.
Coagulation system in blood is composed of intrinsic and extrinsic pathways. The intrinsic pathway is assayed by activated thromboplastin time (aPTT) and the extrinsic pathway is assayed by prothrombin time (PT). Following intraperitoneal injection of various dose of IA, plasma was obtained at different periods of time and was assayed for aPTT and PT. aPTT and PT were assayed in a Stago ST4 coagulation analyzer (ST art 4, Diagnostica Stago, France).
By carbon dioxide anesthesia of mice, blood was obtained by cardiac puncture using 3.2% sodium citrate mixing with blood at a ratio of 1:9. The blood was centrifuged at 2000g/rpm for 10 minutes to get the mouse plasma, which was assayed immediately.
PT was assayed in 4-fold dilution of PT reagent, composed of four parts including one part of PT reagent, one part of 25 mM CaCl solution, and two parts of sterile water. In PT assay, 0.1 mL of plasma was put into each of 4 barrette cuvette, each of which had one steel ball, and was kept at 37° C. for 1 min in Stago ST4 coagulation analyzer. Then, 0.2 mL of the diluted PT reagent was added for PT detection.
Moreover, to investigate the anticoagulation effect in the extrinsic pathway of coagulation system in the IA-treated mice, the PT was measured at different treatment times. Different groups of mice (n=6) were respectively intraperitoneally injected with 1 mL of 1000 ppm ([…]) IA, blood was drawn 1 hr, 2 hr, 3 hr, and 24 hr after IA injection. Ten mice were injected with vehicle (n=10) and were served as controls. Then, the PT of each group was measured. FIG. 3A is a diagram of Table 2-1.
To investigate the anticoagulation effect in the extrinsic pathway of coagulation system in the IA-treated mice, the PT was also measured under different doses of IA. Various doses of IA (1 ppm, 10 ppm, 100 ppm, 1,000 ppm) in 1 mL, were intraperitoneally injected into different groups of mice (n=6), respectively. Plasma was separated 3 hr later. Ten mice were injected with vehicle and were served as controls. The PT of each group was measured. FIG. 3B is a diagram of Table 2-2.

mice = experiment: Tolerability of intraperitoneal IA in mice
Excerpt: (§1) In other words, IA is not harmful to the health of mammals even at high doses.

rats = experiment: Tolerability of IA in rats; settings: 1 mL of 30,000 ppm IA
Excerpt: as §1

[3] = 1 mL i.p., 3 hr after injection
[4] = 1 mL of 1000 ppm (0.05 mL/kg) IA i.p., treatment time 1 hr
[5] = 1 mL of 1000 ppm (0.05 mL/kg) IA i.p., treatment time 2 hr
[6] = 1 mL of 1000 ppm (0.05 mL/kg) IA i.p., treatment time 3 hr
[7] = 1 mL of 1000 ppm (0.05 mL/kg) IA i.p., treatment time 24 hr
[8] = injected dose 1 ppm in 1 mL i.p., 3 hr after injection
[9] = injected dose 10 ppm in 1 mL i.p., 3 hr after injection
[10] = injected dose 100 ppm in 1 mL i.p., 3 hr after injection
[11] = injected dose 1000 ppm in 1 mL i.p., 3 hr after injection

CC(C)CCN [IA, 3-methyl-1-butanamine]
Lowest dose with anticoagulation effect in the intrinsic pathway (aPTT prolonged, statistical meaning) [1, 3]: 1 ppm
Mean of aPTT [1, 4]: 30.8 s
Mean of aPTT [1, 5]: 32.0 s
Mean of aPTT [1, 6]: 33.7 s
Mean of aPTT [1, 7]: 34.8 s
Treatment time after which aPTT prolongation has statistical meaning ([1]; 1 mL of 1000 ppm IA i.p.): 1 h
Mean of aPTT [1, 8]: 33.0 s
Mean of aPTT [1, 9]: 33.0 s
Mean of aPTT [1, 10]: 33.4 s
Mean of aPTT [1, 11]: 33.7 s
Dose at which PT was obviously prolonged (statistical meaning) [2, 3]: 1000 ppm
Mean of PT [2, 4]: 11.6 s
Mean of PT [2, 5]: 12.2 s
Mean of PT [2, 6]: 12.6 s
Mean of PT [2, 7]: 13.2 s
Treatment time after which PT prolongation has statistical meaning ([2]; 1 mL of 1000 ppm IA i.p.): 2 h
Mean of PT [2, 8]: 11.2 s
Mean of PT [2, 9]: 11.4 s
Mean of PT [2, 10]: 11.5 s
Mean of PT [2, 11]: 12.6 s
Tolerance of intraperitoneal injection (mice; BALB/C mice (20 g), 1 mL of 20,000 ppm (0.1 mL/kg) i.p.): could tolerate
Physiological state after IA (mice; mice, 1 mL of 1,000 ppm (0.05 mL/kg) IA): normal physiological state can be maintained
Physiological state after IA (rats): normal physiological state can also be maintained

Reference: US20170216225A1, “METHOD FOR ANTICOAGULATION” (priority 2016, published 2017)
